In ChEMBL document CHEMBL1142441, “Stereochemical studies on the novel monoamine oxidase B substrates (1R,6S)- and (1S,6R)-3-methyl-6-phenyl-3-aza-bicyclo[4.1.0]heptane” (Bioorg Med Chem, 2008):

Target: T1, Amine oxidase [flavin-containing] B (Homo sapiens, UniProt P27338)
T1 sequence (P27338 whole entry): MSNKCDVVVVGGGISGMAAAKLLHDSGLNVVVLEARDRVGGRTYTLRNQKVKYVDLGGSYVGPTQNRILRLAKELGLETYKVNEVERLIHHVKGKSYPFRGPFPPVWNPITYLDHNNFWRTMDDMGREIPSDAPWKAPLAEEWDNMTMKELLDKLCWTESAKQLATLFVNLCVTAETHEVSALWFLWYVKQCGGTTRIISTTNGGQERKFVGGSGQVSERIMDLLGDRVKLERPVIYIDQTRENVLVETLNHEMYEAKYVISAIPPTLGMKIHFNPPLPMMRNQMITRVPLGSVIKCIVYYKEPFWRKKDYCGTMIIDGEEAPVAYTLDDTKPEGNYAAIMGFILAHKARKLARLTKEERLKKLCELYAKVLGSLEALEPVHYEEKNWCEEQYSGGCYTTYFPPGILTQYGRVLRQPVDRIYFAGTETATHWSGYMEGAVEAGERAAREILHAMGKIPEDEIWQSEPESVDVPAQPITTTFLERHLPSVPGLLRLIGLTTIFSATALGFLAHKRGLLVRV
Assay: Activity of 50 nM human recombinant MAOB after 30 mins
Details: 0.5 h

With `CN1CC[C@@]2(c3ccccc3)C[C@H]2C1` the Vmax was 135 nmol.

`CN1CC[C@]2(c3ccccc3)C[C@@H]2C1` gave a Vmax of 135 nmol.
